Data: patent EP1179529A1, “NOVEL HYDROXAMIC ACID DERIVATIVES” (Daiichi Fine Chemical Co., Ltd., priority 1999, dated 2000)
Where a name gives a salt, the structure may show the parent alone.

How the values were obtained:
[1] = target: T1, MMP-1 (Homo sapiens, UniProt P03956); assay: Assay for inhibition of collagenase; assay type: biochemical; conditions: human fibroblast collagenase activated with APMA; substrate fluorescein-labeled bovine type I collagen; 35°C, 2 hours, pH 7.5
T1 sequence (P03956 100-469): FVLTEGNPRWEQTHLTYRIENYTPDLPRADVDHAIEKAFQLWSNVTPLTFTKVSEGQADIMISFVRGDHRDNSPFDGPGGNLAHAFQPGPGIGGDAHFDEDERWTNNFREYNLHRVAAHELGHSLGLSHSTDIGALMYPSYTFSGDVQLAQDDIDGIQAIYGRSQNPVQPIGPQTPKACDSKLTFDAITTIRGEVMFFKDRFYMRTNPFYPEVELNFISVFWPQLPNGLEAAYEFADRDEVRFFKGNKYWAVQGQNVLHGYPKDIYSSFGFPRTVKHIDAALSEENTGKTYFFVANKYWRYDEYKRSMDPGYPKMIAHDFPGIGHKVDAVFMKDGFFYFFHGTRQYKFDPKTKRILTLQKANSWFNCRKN
Procedure: (§1) Described below are assays for biological activities of the compounds according to the present invention, formulations, dosage forms and dosage levels thereof, and miscellaneous matters. The efficacy of the compounds represented by the formula (I) according to the present invention as inhibitors of human fibroblast collagenase (metalloproteinase involved in the breakdown of tissues) is determined by a procedure based on the method of Y. Murawaki et al., Journal of Hepatology, 18, p328-334 (1993). The efficacy of the compounds (I) of this invention as inhibitors of human fibroblast stromelysin is determined by a procedure based on the method of S. S. Twining, Anal. Biochem., 143, p30 (1984). The assay results obtained are shown hereinbelow, together with biological examples which illustrate embodiments of the assay protocols.
The efficacy of compounds of the present invention to act as inhibitors of human fibroblast collagenase was determined by the procedure of Y. Murawaki et al. (Journal of Hepatology, 18, p.328-334, 1993).
Procollagenase was activated by incubation with 2 mM 4-aminophenylmercuric acetate (APMA) at 35°C for 2 hours. The inhibition was assayed using, as a substrate, fluorescein-labeled bovine type I collagen. To a solution of the substrate (0.5 mg/ml) in a 50 mM Tris-HCl buffer, pH 7.5, containing 0.4M aqueous sodium chloride and 10 mM aqueous calcium chloride was added the activated collagenase. The resultant solution was incubated at 35°C for 2 hours. The digestion of the substrate with the enzyme was stopped by addition of 80 mM o-phenanthroline, followed by addition of a porcine elastase solution formed by dissolving 25µ g/ml porcine elastase in the aforementioned Tris-HCl buffer. The mixture was incubated at 37°C for 10 minutes. To the resulting solution was added 70% ethanol, and a 170 mM Tris-HCl buffer, pH 9.5, containing 0.67 M aqueous sodium chloride. Undigested substrates were precipitated by centrifugation at 3000 x g for 20 minutes. The supernatant was collected and the fluorescence was read using an excitation wavelength of 495 nm and an emission wavelength of 520 nm. The inhibitory potency of the compounds was calculated. IC50 represents the concentration of each test compound requited for 50% inhibition of cleavage of substrates by the enzyme alone. The compounds of the present invention have potent inhibitory activities (Table 1).

[2] = target: MMP-3 (Homo sapiens, UniProt P08254); assay: Assay for inhibition of stromelysin; assay type: biochemical; conditions: human fibroblast stromelysin activated with human plasmin; substrate fluorescein-labeled casein; 37°C, 2 hours, pH 7.8
Chain of MMP-3 (P08254 100-477): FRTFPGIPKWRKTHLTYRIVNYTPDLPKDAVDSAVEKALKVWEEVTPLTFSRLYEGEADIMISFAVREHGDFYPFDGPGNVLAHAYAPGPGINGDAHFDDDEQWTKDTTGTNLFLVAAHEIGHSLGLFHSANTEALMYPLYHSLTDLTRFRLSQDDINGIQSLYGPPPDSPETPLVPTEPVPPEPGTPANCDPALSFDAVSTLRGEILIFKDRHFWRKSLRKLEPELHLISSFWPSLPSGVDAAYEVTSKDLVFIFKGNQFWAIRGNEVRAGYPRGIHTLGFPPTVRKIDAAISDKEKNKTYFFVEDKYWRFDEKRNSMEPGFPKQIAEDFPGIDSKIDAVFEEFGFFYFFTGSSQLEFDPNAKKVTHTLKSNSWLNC
Procedure: as §1
The efficacy of compounds of the present invention to act as inhibitors of human fibroblast stromelysin was determined by the procedure of Twining (Anal. Biochem., 143, p.30, 1984).
Prostromelysin was activated by incubation with 20µ g/ml human plasmin at 37°C for 2 hours, and the reaction was stopped by addition of 2.8 mg/ml aqueous diisopropyl fluorophosphate. The inhibition was assayed using, as a substrate, fluorescein-labeled casein. To a solution of the substrate (1 mg/ml) in a 50 mM Tris-HCl buffer, pH 7.8, containing 10mM aqueous calcium chloride was added the activated stromelysin. The resultant solution was incubated at 37°C for 2 hours. The digestion of the substrate with the enzyme was stopped by addition of 5% trichloroacetic acid. Undigested substrates were precipitated by centrifugation at 3000 x g for 20 minutes. The supernatant was collected, followed by addition of a 0.5M Tris-HCl buffer, pH 8.5. The fluorescence was read using an excitation wavelength of 495 nm and an emission wavelength of 520 nm. The inhibitory potency of the compounds was calculated. IC50 represents the concentration of each test compound requited for 50% inhibition of cleavage of substrates by the enzyme alone. […]

IC50 [1] [µM] | IC50 [2] [µM] | SMILES
0.167 |  | COC(=O)[C@H](Cc1ccc(CN)cc1)NC(=O)[C@H](CC(C)C)[C@H](CCCc1ccccc1)C(=O)NO [Compound No. 7, N^a-[4-(N-Hydroxyamino)-2(R)-isobutyl-3(S)-(3-phenylpropyl)-succinyl]-L-4'-aminomethylphenylalanine methyl ester · 1 acetate]
0.34 |  | CC(C)C[C@@H](C(=O)N[C@@H](Cc1ccc(CN)cc1)C(=O)O)[C@H](CCCc1ccccc1)C(=O)NO [Compound No. 8, N^a-[4-(N-Hydroxyamino)-2(R)-isobutyl-3(S)-(3-phenylpropyl)-succinyl]-L-4'-aminomethylphenylalanine · 1 hydrochloride]
0.03 | 0.02 | COC(=O)[C@H](Cc1ccc(CNC(C)=N)cc1)NC(=O)[C@H](CC(C)C)[C@H](CCCc1ccccc1)C(=O)NO [Compound No. 9, N^a-[4-(N-Hydroxyamino)-2(R)-isobutyl-3(S)-(3-phenylpropyl)-succinyl]-L-4'-acetimidoyliminomethylphenylalanine methyl ester 1 hydrochloride]
0.5 | 0.07 | CC(=N)NCc1ccc(C[C@H](NC(=O)[C@H](CC(C)C)[C@H](CCCc2ccccc2)C(=O)NO)C(=O)O)cc1 [Compound No. 10, N^a-[4-(N-Hydroxyamino)-2(R)-isobutyl-3(S)-(3-phenylpropyl)-succinyl]-L-4'-acetimidoyliminomethylphenylalanine · 1 acetate]
0.418 | 0.029 | CC(C)C[C@@H](C(=O)N[C@@H](Cc1ccc(CN)cc1)C(=O)O)[C@H](CCCc1ccccc1)C(=O)NO [Compound No. 11, N^a-[4-(N-Hydroxyamino)-2(R)-isobutyl-3(S)-(3-phenylpropyl)-succinyl]-L-4'-aminomethylphenylalanine]
